{"source": "patent US11845803B2", "about": "“Combination therapies for treatment of BCMA-related cancers and autoimmune disorders” (Fred Hutchinson Cancer Center, priority 2017, dated 2023)", "key": {"[1]": {"system": "BCMA-specific T-ChARM T cells co-cultured with K562/BCMA+ cells", "experiment": "Effect of exogenous soluble BCMA / BCMA-Fc on BCMA-specific T-ChARM T cell function", "type": "cell-based, human", "procedure": "(H) IFN-γ production by BCMA-specific T-ChARM T cells in the presence of exogenous soluble BCMA. sBCMA was added to co-cultures of T cells expressing a BCMA-specific T-ChARM and K562 cells transduced with a polynucleotide encoding full-length BCMA (K562/BCMA^+).\n(I) Data from another dose-titration experiment showing the effect of sBCMA on IFN-γ production by BCMA-specific T-ChARM T cells recognizing K562 BCMA^+ cells, which included adding sBCMA to culture at another, higher concentration (5000 ng/mL).\n(N) Flow cytometry data showing IFN-γ production (y-axis) and CD4 expression (x-axis) by T cells expressing either a C113ST-ChARM (“C113ST”) of this disclosure or a control anti-CD19 CAR (“[…]”), in co-culture with target-expressing K562 cells and administered the BCMA-Fc fusion protein (left panels: 0 ng/ml BCMA-Fc; right panels: 1000 ng/ml BCMA-Fc.\n(O) Dose titration showing IFN-γ release by CAR T cells in response to target cell lines as indicated in the presence or absence of exogenous recombinant BCMA (BCMA-Fc fusion). FMC63 (anti-CD19) vs. K562 CD19^+ (control; downward-facing triangle); C113ST T-ChARM T cells vs. RPMI 8226 (upward-facing triangle), U266 (square), and K562 BCMA^+ cells (circle). Data is representative of 2 independent experiments. Bars represent mean+SEM. P-value=<0.05, as determined by one-way ANOVA with post-test. MFI=mean fluorescence intensity.\n(P) IFN-γ production (normalized Mean Fluorescence Intensity, MFI) by the T cells shown in FIG. 2O in co-culture with indicated antigen-expressing cells and in the presence or absence of BCMA-Fc (x-axis).\n(Q) Cytolytic activity of CD8^+ C113ST T-ChARM T cells against K562 BCMA^+ target cells and of FMC63 CAR-T cells against K562 CD19^+ target cells at varying concentrations of recombinant BCMA, analyzed by a 4 h CRA at E:T ratio of 10:1. Data is representative of 2 independent experiments. Bars represent mean+SEM. P-value=<0.05, as determined by one way ANOVA with post-test. MFI=mean fluorescence intensity.\nThe effect of sBCMA was examined as well by adding sBCMA to co-cultures of T cells expressing a BCMA-specific T-ChARM and K562 cells transduced with a polynucleotide encoding full-length BCMA (K562/BCMA^+)."}, "C113ST T-ChARM T cells": {"system": "C113ST T-ChARM T cells", "experiment": "sBCMA binding to T-ChARM T cells (BCMA-Fc-APC staining after incubation with recombinant BCMA)", "set-up": "species or system human", "conditions": "increasing levels of recombinant BCMA", "procedure": "(L) sBCMA binding to C113ST-ChARM T cells of this disclosure. T cells were incubated with the indicated levels of recombinant sBCMA (right side of diagram) and then stained with a BCMA-Fc fusion that was conjugated to APC.\nTo examine whether high levels of sBCMA might inhibit the activity of BCMA-specific T-ChARM T cells, patient bone marrow (BM) sera were examined for sBCMA levels. […] To test whether sBCMA would bind to the T-ChARM T cells, the T cells were incubated with increasing levels of recombinant BCMA and then stained using BCMA-Fc conjugated to APC."}}, "note": "No end group written: not given here."}
{"substance": "BCMA-Fc: recombinant BCMA-Fc fusion protein (MLQMAGQCSQNEYFDSLLHACIPCQLRCSSNTPPLTCQRYCNASVTNSVKGTNA; not fully specified; cysteine pairing not given here; also: fused to dimerising Fc or GST (not given here))", "values": [{"measurement": "recognition (IFN-γ production and CD4 expression) by BCMA-targeting T-ChARM T cells", "setting": "[1]; BCMA-Fc added to co-cultures", "result": "much-reduced recognition"}, {"measurement": "recognition by control anti-CD19 CAR T cells", "setting": "[1]; BCMA-Fc added, K562 cells expressing CD19", "result": "but not by control anti-CD19 CAR T cells"}, {"measurement": "dose dependence of effect on BCMA T-ChARM T cells", "setting": "[1]; BCMA-Fc titration", "result": "dose-dependent"}]}
{"substance": "sBCMA: exogenous soluble / recombinant BCMA not fused to Fc (MLQMAGQCSQNEYFDSLLHACIPCQLRCSSNTPPLTCQRYCNASVTNSVKGTNA)", "values": [{"measurement": "BCMA-Fc-APC staining of T-ChARM T cells", "setting": "C113ST T-ChARM T cells", "result": "staining decreased"}, {"measurement": "T-ChARM T cell effector function (IFN-γ release)", "setting": "[1]; exogenous sBCMA added to co-culture with K562/BCMA+", "result": "dose-dependent inhibition"}, {"measurement": "IFN-γ production by T-ChARM T cells", "setting": "[1]; recombinant BCMA not fused to Fc", "result": "inhibited IFN-γ production in a dose-dependent fashion"}, {"measurement": "lysis of K562 BCMA+ cells by T-ChARM T cells", "setting": "[1]; recombinant BCMA not fused to Fc, 4 h CRA, E:T 10:1", "result": "did not inhibit lysis"}]}
